{"source": "patent US20090131465A1", "about": "“Synthesis and crystalline forms of melanocortin-4 receptor agonist” (priority 2007, published 2009)", "key": {"[1]": {"experiment": "chemical and physical stability of the crystalline form (statement only, no method)", "assay_type": "physicochemical", "details": "qualitative statement, no conditions given"}, "[2]": {"experiment": "aqueous solubility of the crystalline form (statement only, no method)", "assay_type": "physicochemical", "details": "qualitative statement, no conditions given"}}}
{"smiles": "CC(=O)NC(C)(C)[C@@H]1CC2(CCN(C(=O)[C@@H]3CN(C(C)(C)C)C[C@H]3c3ccc(F)cc3F)CC2)c2cc(Cl)c(C)cc21.Cl", "note": "[N-[1-((3R)-1′-1′-{[(3S,4R)-1-tert-butyl-4-(2,4-difluorophenyl)pyrrolidine-3-yl]carbonyl}-6-chloro-5-methyl-2,3-dihydrospiro[indene-1,4′-piperidine]-3-yl)-1-methylethyl]acetamide]", "values": [{"measurement": "chemical and physical stability", "setting": "[1]", "result": "good"}, {"measurement": "aqueous solubility", "setting": "[2]", "result": "good"}]}
